# Results published in patent US20110183980A1, “O-BENZYL NICOTINAMIDE ANALOGS AS MGLUR5 POSITIVE ALLOSTERIC MODULATORS” (priority 2009, published 2011).
# Target: T1, rat mGluR5 (Rattus norvegicus, UniProt P31424)
# T1 construct: expressed in transfected cells; host or cells: human embryonic kidney (HEK) cells
# Test: Potentiation of glutamate response, Ca2+ fluorescence (FDSS) in HEK cells transfected with rat mGluR5
# Format: cell-based
# Conditions: Table 1; potentiation of mGluR5 response to glutamate; read-out: EC50
# Experimental: Human embryonic kidney (HEK) cells transfected with rat mGluR5 were plated in clear bottom assay plates for assay in a Functional Drug Screening System (FDSS). The cells were loaded with a Ca^2+-sensitive fluorescent dye (e.g., Fluo-4), and the plates were washed and placed in the FDSS instrument. After establishment of a fluorescence baseline for twelve seconds, the compounds of the present invention were added to the cells, and the response in cells was measured. Five minutes later, an mGluR5 agonist (e.g., glutamate, 3,5-dihydroxyphenylglycine, or quisqualate) was added to the cells, and the response of the cells was measured. Potentiation of the agonist response of mGluR5 by the compounds in the present invention was observed as an increase in response to non-maximal concentrations of agonist (here, glutamate) in the presence of compound compared to the response to agonist in the absence of compound.
# The above described assay operated in two modes. In the first mode, a range of concentrations of the present compounds were added to cells, followed by a single fixed concentration of agonist. If a compound acted as a potentiator, an EC50 value for potentiation and a maximum extent of potentiation by the compound at this concentration of agonist was determined by non-linear curve fitting. In the second mode, several fixed concentrations of the present compounds were added to various wells on a plate, followed by a range of concentrations of agonist for each concentration of present compound; the EC50 values for the agonist at each concentration of compound were determined by non-linear curve fitting. A decrease in the EC50 value of the agonist with increasing concentrations of the present compounds (a leftward shift of the agonist concentration-response curve) is an indication of the degree of mGluR5 potentiation at a given concentration of the present compound. An increase in the EC50 value of the agonist with increasing concentrations of the present compounds (a rightward shift of the agonist concentration-response curve) is an indication of the degree of mGluR5 antagonism at a given concentration of the present compound. The second mode also indicates whether the present compounds also affect the maximum response to mGluR5 to agonists.
# T1 sequence (P31424 21-1203): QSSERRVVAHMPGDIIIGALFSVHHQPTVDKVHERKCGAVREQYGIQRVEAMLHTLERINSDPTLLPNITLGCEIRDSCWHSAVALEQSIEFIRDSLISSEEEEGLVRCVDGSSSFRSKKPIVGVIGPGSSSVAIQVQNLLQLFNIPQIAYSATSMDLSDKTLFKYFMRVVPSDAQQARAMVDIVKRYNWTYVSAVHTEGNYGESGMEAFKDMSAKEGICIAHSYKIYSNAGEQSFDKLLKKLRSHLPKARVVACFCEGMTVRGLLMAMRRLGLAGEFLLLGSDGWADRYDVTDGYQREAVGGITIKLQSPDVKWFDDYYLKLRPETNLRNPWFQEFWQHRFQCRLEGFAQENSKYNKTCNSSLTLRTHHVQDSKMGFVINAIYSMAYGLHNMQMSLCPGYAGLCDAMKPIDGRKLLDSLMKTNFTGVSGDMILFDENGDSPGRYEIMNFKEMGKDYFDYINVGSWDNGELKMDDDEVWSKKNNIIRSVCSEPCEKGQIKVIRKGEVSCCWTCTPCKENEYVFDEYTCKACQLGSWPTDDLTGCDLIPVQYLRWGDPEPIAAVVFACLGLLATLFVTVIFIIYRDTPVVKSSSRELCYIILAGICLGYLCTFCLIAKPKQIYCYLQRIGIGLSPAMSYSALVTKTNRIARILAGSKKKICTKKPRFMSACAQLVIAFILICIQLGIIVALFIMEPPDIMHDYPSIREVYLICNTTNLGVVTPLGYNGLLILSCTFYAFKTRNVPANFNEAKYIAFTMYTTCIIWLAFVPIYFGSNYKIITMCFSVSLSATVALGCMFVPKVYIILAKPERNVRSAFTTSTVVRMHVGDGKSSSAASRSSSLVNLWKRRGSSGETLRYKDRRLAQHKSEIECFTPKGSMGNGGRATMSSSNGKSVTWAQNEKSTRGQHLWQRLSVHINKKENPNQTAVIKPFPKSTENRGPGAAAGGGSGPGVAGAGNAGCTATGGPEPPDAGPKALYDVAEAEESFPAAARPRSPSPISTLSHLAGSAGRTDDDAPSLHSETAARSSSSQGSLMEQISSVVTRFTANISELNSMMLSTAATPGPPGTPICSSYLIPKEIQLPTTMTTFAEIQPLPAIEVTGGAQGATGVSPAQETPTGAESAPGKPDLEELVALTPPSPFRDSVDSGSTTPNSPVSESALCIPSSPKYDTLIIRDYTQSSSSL
row,EC50 [µM],SMILES
1,0.51,O=C(Nc1ccc(F)cn1)c1ccc(OCc2ccc(F)cc2)nc1 [Example 1.2d.3]
2,0.26,O=C(Nc1ccc(F)cc1)c1ccc(OCc2cccc(F)c2)nc1 [Example 1.2c.11]
3,0.04,O=C(NC1CCCCC1)c1ccc(OCc2cccc(F)c2)nc1 [Example 1.2c.6]
4,1.6,O=C(NC1CCOCC1)c1ccc(OCc2cccc(F)c2)nc1 [Example 1.2c.20]
5,0.71,O=C(NC1CCCCC1)c1ccc(OCC2CCCC2)nc1 [Example 2.3a.4]
6,1.1,CC(C)(C)CCNC(=O)c1ccc(OCc2cc(F)cc(F)c2)nc1 [Example 1.2e.1]
7,0.28,O=C(Nc1ccc(F)cn1)c1ccc(OCc2ccccc2)nc1 [Example 1.2a.11]
8,0.092,CC(C)(C)CCNC(=O)c1ccc(OCc2ccccc2)nc1 [Example 1.2a.8]
9,1.6,Cc1csc(NC(=O)c2ccc(OCc3ccccc3)nc2)n1 [Example 1.2a.20]
10,0.34,O=C(Nc1ccc(F)cc1)c1ccc(OCc2ccccc2)nc1 [Example 1.2a.17]
11,0.87,Cc1nc(OCc2cccc(F)c2)ccc1C(=O)N[C@H](C)C1CCCCC1 [Example 1.2m.2]
12,0.38,O=C(Nc1ccccc1)c1ccc(OCc2ccccc2)nc1 [Example 1.2a.14]
13,≥ 10,CCCCOc1ccc(C(=O)NC(C)(C)C)cn1 [Example 1.2j.3]
14,1.1,O=C(Nc1ccncn1)c1ccc(OCc2ccccc2)nc1 [Example 1.2a.13]
15,1.5,CCCCOc1ccc(C(=O)N[C@H](C)C2CCCCC2)cn1 [Example 1.2j.6]
16,4.8,C[C@@H](NC(=O)c1ccc(OCc2ccncc2)nc1)C1CC1 [Example 1.2i.5]
17,0.3,O=C(Nc1ccccn1)c1ccc(OCc2ccccc2F)nc1 [Example 1.2f.1]
18,0.4,CC(C)(C)NC(=O)c1ccc(OCc2cccc(F)c2)nc1 [Example 1.2c.5]
19,2.9,O=C(Nc1ccccn1)c1ccc(OCc2cccnc2)nc1 [Example 1.2h.1]

row,EC50 [µM],SMILES
1,1.6,Cc1nc(OCc2ccccc2)ccc1C(=O)NCC1CC1 [Example 1.2b.2]
2,≥ 10,O=C(Nc1ccccn1)c1ccc(OCc2ccncc2)nc1 [Example 1.2i.2]
3,1.3,O=C(Nc1ccccn1)c1ccc(OCc2ccc(F)cc2)nc1 [Example 1.2d.1]
4,3.7,O=C(c1ccc(OCc2ccccc2)nc1)N1CCC1 [Example 1.2a.10]
5,1.5,CCCCOc1ccc(C(=O)Nc2ccc(F)cn2)cn1 [Example 1.2j.4]
6,0.31,O=C(Nc1ccccc1F)c1ccc(OCc2ccccc2)nc1 [Example 1.2a.15]
7,0.12,O=C(NC1CCC1)c1ccc(OCc2cccc(F)c2)nc1 [Example 1.2c.19]
8,1.2,O=C(NC1CCCCC1)c1ccc(OCc2ccncc2)nc1 [Example 1.2i.3]
9,2.4,CCCCOc1ccc(C(=O)NC2CCCCC2)cn1 [Example 1.2j.2]
10,0.21,O=C(Nc1ccc(F)cc1F)c1ccc(OCc2ccc(F)cc2)nc1 [Example 1.2d.2]
11,1,CC(C)NC(=O)c1ccc(OCc2cccc(F)c2)nc1 [Example 1.2c.4]
12,0.92,O=C(NCC1CC1)c1ccc(OCc2cccc(F)c2)nc1 [Example 1.2c.14]
13,0.17,C[C@@H](NC(=O)c1ccc(OCc2ccccc2)nc1)C1CC1 [Example 1.2a.22]
14,0.34,O=C(NC1CCC1)c1ccc(OCc2ccccc2)nc1 [Example 1.2a.9]
15,0.14,O=C(Nc1ccc(F)cc1F)c1ccc(OCc2ccccc2)nc1 [Example 1.2a.5]
16,0.12,Cc1cccc(COc2ccc(C(=O)NC3CCC3)cn2)c1 [Example 1.2g.2]
17,3.1,O=C(NC1CCCCC1)c1ccc(OCc2nccs2)nc1 [Example 2.3a.9]
18,0.45,O=C(NCC1CC1)c1ccc(OCc2ccccc2)nc1 [Example 1.2a.7]

# Same assay, conditions: Table 2; potentiation of mGluR5 response to glutamate; read-out: EC50
row,EC50 [µM],SMILES
1,1.7,C[C@@H](NC(=O)c1ccc(OCc2cccc(F)c2)nc1)C1CCOC(C)(C)C1 (some centres unmarked)
2,0.61,C[C@H](NC(=O)c1ccc(OCc2cccc(F)c2)nc1)C(C)(C)O
3,1,CC(NC(=O)c1ccc(OCc2cccc(F)c2)nc1)C(C)(C)CO (centres unmarked)
4,> 10,C[C@@H](NC(=O)c1ccc(OCc2cccc(F)c2)[nH]c1=O)C(C)(C)C
5,3.4,COc1ccccc1NC(=O)c1ccc(OCc2ccccc2)nc1
6,1.3,Cc1cc(C(=O)NCCC(C)(C)C)cnc1OCc1cccc(F)c1
7,0.18,O=C(NC12CC3CC(CC(C3)C1)C2)c1ccc(OCc2ccccc2)nc1
8,5.1,COc1cc(F)cc(COc2ccc(C(=O)N[C@H](C)C(C)(C)C)cn2)c1
9,> 10,C[C@H](NC(=O)c1ccc(OCc2cccc(F)c2)nc1Cl)C(C)(C)C
10,0.12,COc1cccc(COc2ccc(C(=O)N[C@H](C)C(C)(C)C)cn2)c1
11,> 10,CC(NC(=O)c1ccc(OCc2cccc(F)c2)nc1)C1CCCCO1 (centres unmarked)
12,0.3,O=C(NC(C1CC1)C1CC1)c1ccc(OCc2cccc(F)c2)nc1
13,> 10,COc1ccccc1COc1ccc(C(=O)N[C@H](C)C(C)(C)C)cn1
14,0.036,CC1CCCCC1NC(=O)c1ccc(OCc2ccccc2)nc1 (centres unmarked)
15,1.9,COc1cc(C(=O)NCCC(C)(C)C)cnc1OCc1cccc(F)c1
16,> 10,COc1nc(OCc2cccc(F)c2)ccc1C(=O)NCCC(C)(C)C
17,> 10,CC(Oc1ccc(C(=O)N[C@H](C)C(C)(C)C)cn1)c1cccc(F)c1 (some centres unmarked)
18,0.52,O=C(Nc1ccccc1O)c1ccc(OCc2ccccc2)nc1
19,3.7,CC(NC(=O)c1ccc(OCc2cccc(F)c2)nc1)C1CCCOC1 (centres unmarked)
20,3.9,CC(C)(C)CCNC(=O)c1cnc(OCc2cccc(F)c2)c(C#N)c1
21,0.66,CC(NC(=O)c1ccc(OCc2cccc(F)c2)nc1)C(C)(C)O (centres unmarked)

row,EC50 [µM],SMILES
1,3.6,C[C@@H](NC(=O)c1cnc(OCc2ccncc2)c(Br)c1)C1CCCCC1
2,> 10,CC1(CCNC(=O)c2ccc(OCc3cccc(F)c3)nc2)COC1
3,5.2,COc1c(F)cccc1COc1ccc(C(=O)N[C@H](C)C(C)(C)C)cn1
4,0.15,C[C@@H](NC(=O)c1ccc(OCc2cccc(F)c2)nc1)C(C)(C)O
5,0.31,C[C@@H](NC(=O)c1ccc(OCc2cccc(F)c2)nc1)C1CCOCC1
6,0.68,Cc1cc(C(=O)Nc2ccc(F)cc2F)cnc1OCc1ccncc1
7,> 10,CC1(O)CC(NC(=O)c2ccc(OCc3cccc(F)c3)nc2)C1 (centres unmarked)
8,> 10,C[C@]1(O)CCC[C@@H]1NC(=O)c1ccc(OCc2cccc(F)c2)nc1
9,0.18,O=C(NC1CCCC1)c1ccc(OCc2ccccc2)nc1
10,0.0022,C[C@@H](NC(=O)c1ccc(OCc2cccc(F)c2)nc1)C(C)(C)C
11,1.3,CC[C@@H](C)NC(=O)c1ccc(OCc2cccc(F)c2)nc1
12,0.13,Cc1cc(OCc2cccc(F)c2)ncc1C(=O)N[C@H](C)C1CCCCC1
13,0.49,Cc1cc(OCc2ccncc2)ncc1C(=O)Nc1ccc(F)cc1F
14,> 10,CC(C)(C)CCNC(=O)c1cnc(OCc2ccncc2)c(C#N)c1
15,3.9,CC(C)(C)CCNC(=O)c1cnc(OCc2ccncc2)c(Br)c1
16,> 10,C[C@@H](NC(=O)c1cnc(OCc2cccc(F)c2)c(C(F)(F)F)c1)C1CCCCC1
17,1.1,CC(C)(C)CC(C)(C)NC(=O)c1ccc(OCc2cccc(F)c2)nc1
18,3.2,CC(C)(C)[C@@H](CO)NC(=O)c1ccc(OCc2cccc(F)c2)nc1
19,0.96,Cc1cc(OCc2cccc(F)c2)ncc1C(=O)NCCC(C)(C)C
20,3.5,COc1ccc(F)cc1COc1ccc(C(=O)N[C@H](C)C(C)(C)C)cn1

# Same assay, conditions: mGluR5 expressing cell line
row,Glu max [%],SMILES
1,91,"C[C@@H](NC(=O)c1ccc(OCc2ccccc2)nc1)C1CCCCC1 [Example 1.2a.2, (R)-6-(Benzyloxy)-N-(1-cyclohexylethyl)nicotinamide]"

# Same assay, conditions: mGluR5 expressing cell line, potentiation; read-out: EC50
row,EC50 [µM],SMILES
1,0.04,"C[C@@H](NC(=O)c1ccc(OCc2ccccc2)nc1)C1CCCCC1 [Example 1.2a.2, (R)-6-(Benzyloxy)-N-(1-cyclohexylethyl)nicotinamide]"
